From the Deep4Chem optical property database
Values joined by “and” are separate entries in the source; they are usually repeats but may differ in a detail not shown here. Equal entries are not always repeated.

Assay: solvent given as SMILES

FC(F)(F)c1ccc(/C2=C3N=C(C(c4ccccc4)=C/3c3ccccc3)/C(c3ccc(C(F)(F)F)cc3)=c3\[nH]/c(c(-c4ccccc4)c3-c3ccccc3)=C(/c3ccc(C(F)(F)F)cc3)C3=N/C(=C(/c4ccc(C(F)(F)F)cc4)c4[nH]c2c(-c2ccccc2)c4-c2ccccc2)C(c2ccccc2)=C3c2ccccc2)cc1
absorption maximum (in ClCCl): 708 nm

CCOC(=O)c1ccc(O)c(-c2[nH]c(=O)n3c2-c2ccccc2C3=O)c1
absorption maximum (in CC#N): 391 nm
absorption maximum (in CO): 395 nm
absorption maximum (in ClCCl): 399 nm

FC(F)(F)C(F)(F)C(F)(F)C(F)(F)C(F)(F)C(F)(F)CCOc1nnc(Cl)nn1
absorption maximum (in ClCCl): 519 nm
absorption maximum (in OCC(F)(F)F): 519 nm

CCCCCCCCc1ccc(-c2c3cc(-c4cc(CCCCCCCC)c(-c5ccc(-c6sc(/C=C7\SC(N8CCCCC8)=NC7=O)cc6CCCCCCCC)s5)s4)sc3c(-c3ccc(CCCCCCCC)s3)c3cc(-c4cc(CCCCCCCC)c(-c5ccc(-c6sc(/C=C7\SC(N8CCCCC8)=NC7=O)cc6CCCCCCCC)s5)s4)sc23)s1
absorption maximum (in ClC(Cl)Cl): 475 nm

O=C1CC(c2ccc(Cl)cc2)c2c(c3ccccc3c3nc4ccccc4nc23)O1 (stereo unspecified)
absorption maximum (in ClC(Cl)Cl): 410 nm

CCCCn1c2ccccc2c2ccc3c4cc(-c5ccccc5)ccc4n(CCCC)c3c21
absorption maximum (in ClC(Cl)Cl): 330 nm

Clc1ccc(/C=C(\c2ccccc2)c2nc3ccccc3o2)cc1
absorption maximum (in C1CCCCC1): 330 nm
absorption maximum (in CO): 330 nm

O=C1c2ccccc2-c2c(-c3cc(Br)ccc3O)[nH]c(=O)n21
absorption maximum (in CC#N): 390 nm
absorption maximum (in CO): 400 nm
absorption maximum (in ClCCl): 396 nm

c1ccc(-c2nc(-c3ccccc3)nc(-n3c4ccccc4c4cc(-n5c6ccccc6c6ccccc65)ccc43)n2)cc1
absorption maximum (in C1CCOC1): 321.23 nm

CCOC(=O)C1=C(N)n2c(=O)c3ccccc3c(=O)n2C1c1ccc([N+](=O)[O-])cc1 (stereo unspecified)
absorption maximum (in CS(C)=O): 358 nm

Cc1c2ccc3c(C)[n+](C)ccc3c2cc[n+]1C
absorption maximum (in CC#N): 390 nm

Nc1ccc(N2C(=O)c3ccc4c5ccc6c7c(ccc(c8ccc(c3c48)C2=O)c75)C(=O)N(c2ccc(N)cc2)C6=O)cc1
absorption maximum (in CN(C)C=O): 537 nm

COC(=O)c1cccc2c1C#Cc1c(NC(C)=O)cccc1OCCCO2
absorption maximum (in CC#N): 335 nm
absorption maximum (in ClCCl): 341 nm

CCCCN1C(=O)c2cc(Oc3ccc(C(C)(C)C)cc3)c3c4c(Oc5ccc(C(C)(C)C)cc5)c(Oc5ccc(C(C)(C)C)cc5)c5c6c(cc(Oc7ccc(C(C)(C)C)cc7)c(c7c(Oc8ccc(C(C)(C)C)cc8)c(Oc8ccc(C(C)(C)C)cc8)c(c2c37)C1=O)c64)C(=O)N(CCCC)C5=O
absorption maximum (in ClC(Cl)Cl): 570 nm

F[B-]1(F)n2cccc2C(c2ccccc2)=C2C=CC(N3CCOCC3)=[N+]21
absorption maximum (in CC#N): 473 nm
absorption maximum (in CCCCCC): 514 nm
absorption maximum (in CCOC(C)=O): 480 nm
absorption maximum (in CO): 479 nm
absorption maximum (in ClCCl): 486 nm

CCCCCCC1(CCCCCC)c2cc(-c3nc(-c4ccc5c(c4)C(CCCCCC)(CCCCCC)c4cc(N6c7ccccc7Sc7ccccc76)ccc4-5)nc(-c4ccc5c(c4)C(CCCCCC)(CCCCCC)c4cc(N6c7ccccc7Sc7ccccc76)ccc4-5)n3)ccc2-c2ccc(N3c4ccccc4Sc4ccccc43)cc21
absorption maximum (in C1CCOC1): 400 nm

O=C1c2ccccc2C2=Cc3ccc4ccccc4[n+]3[B-](F)(F)N12
absorption maximum (in CCO): 450 nm
absorption maximum (in Cc1ccccc1): 458 nm
absorption maximum (in ClCCl): 454 nm

O=C1CCCC2=C1CC1=C(CCCC1=O)N2NC(=O)c1ccccc1
absorption maximum (in C1CCOC1): 366 nm
absorption maximum (in CC#N): 368 nm
absorption maximum (in CC(C)=O): 366 nm
absorption maximum (in CCCCCO): 376 nm
absorption maximum (in CO): 374 nm
absorption maximum (in ClC(Cl)Cl): 370 nm
absorption maximum (in ClCCl): 364 nm

Cc1ccc2[nH]c(-c3ccc(-c4ccc(-c5ccc(-c6nc7cc(C)ccc7[nH]6)cc5)c(F)c4)cc3)nc2c1
absorption maximum (in CN(C)C=O): 344 nm

CCN(CC)c1ccc2cc(-c3nc4cc(C(=O)Nc5ccccc5)ccc4o3)c(=O)oc2c1
absorption maximum (in ClCCl): 442 nm

COc1ccc(C2=Cc3ccccc3[Si]2(c2ccccc2)c2ccccc2)cc1
absorption maximum (in ClCCl): 350 nm

CCOC(=O)C1=C(C)NC2=C(C(=O)c3ccccc32)C1c1ccc(N(C)C)cc1 (stereo unspecified)
absorption maximum (in C1CCOC1): 374 nm
absorption maximum (in C1COCCO1): 373 nm
absorption maximum (in CC#N): 379 nm
absorption maximum (in CCO): 395 nm
absorption maximum (in CN(C)C=O): 385 nm
absorption maximum (in CO): 389 nm
absorption maximum (in CS(C)=O): 400 nm
absorption maximum (in ClC(Cl)(Cl)Cl): 371 nm
absorption maximum (in ClC(Cl)Cl): 383 nm
absorption maximum (in ClCCl): 387 nm

CC1(C)c2cc(/C=C/c3nc(/C=C/c4ccc5c(c4)C(C)(C)c4cc(N(c6ccccc6)c6ccc7ccccc7c6)ccc4-5)nc(/C=C/c4ccc5c(c4)C(C)(C)c4cc(N(c6ccccc6)c6ccc7ccccc7c6)ccc4-5)n3)ccc2-c2ccc(N(c3ccccc3)c3ccc4ccccc4c3)cc21
absorption maximum (in C1CCOC1): 403 nm

CC1(C)C2=[N+](CCCCCC(=O)NCNC(=O)CCCCCN3/C(=C/C=C/C=C/C=C/2)C(C)(C)c2cc(S(=O)(=O)[O-])ccc23)c2ccc(S(=O)(=O)[O-])cc21
absorption maximum (in CO): 754 nm

c1ccc(-c2nc(-c3ccccn3)sc2N(c2ccccc2)c2ccccc2)cc1
absorption maximum (in ClC(Cl)Cl): 388 nm

CC1=CC(C)=[N+]2C1=Cc1c3ccccc3c(C#Cc3ccccc3)n1[B-]2(F)F
absorption maximum (in CCCCCC): 608 nm
absorption maximum (in CCCCCCCCO): 612 nm
absorption maximum (in CCOC(C)=O): 606 nm
absorption maximum (in CN(C)C=O): 612 nm
absorption maximum (in ClCCl): 612 nm

Clc1ccccc1-c1nc2sc3ccccc3c2s1
absorption maximum (in CS(C)=O): 347 nm

CC(C)(C)c1ccc2c(c1)c1cc(C(C)(C)C)ccc1n2-c1ccc(S(=O)(=O)c2ccc(S(=O)(=O)c3ccc(-n4c5ccc(C(C)(C)C)cc5c5cc(C(C)(C)C)ccc54)cc3)cc2)cc1
absorption maximum (in Cc1ccccc1): 363 nm

C[n+]1cc2ccc3c[n+](C)cc4ccc(c1)c2c34
absorption maximum (in CC#N): 418 nm

COC(=O)c1c2ccccc2nc2ccccc12
absorption maximum (in C1CCOC1): 361 nm
absorption maximum (in C1COCCO1): 361 nm
absorption maximum (in CC#N): 360 nm
absorption maximum (in CCCCCO): 361 nm
absorption maximum (in CCCCO): 360 nm
absorption maximum (in CCCO): 361 nm
absorption maximum (in CCO): 360 nm
absorption maximum (in CO): 360 nm
absorption maximum (in COCCOC): 361 nm
absorption maximum (in ClC(Cl)Cl): 361 nm
absorption maximum (in ClCCl): 361 nm
absorption maximum (in OCCO): 361 nm

CCCC1=Cc2nc1ccc1[nH]c(cc1CCC)c1nc(c(NC(=O)CCCC(=O)O)cc3[nH]c2cc3CCC)C(CCC)=C1
absorption maximum (in ClCCl): 636 nm

COc1ccc(/C=C/c2ncc(-c3ccccc3)o2)cc1OC
absorption maximum (in ClCCl): 355 nm

C(#Cc1ncc(-c2ccccc2)o1)c1cccnc1
absorption maximum (in ClCCl): 330 nm

CN(C)c1[se]c(-c2ccc(Cl)cc2)nc1-c1ccccc1
absorption maximum (in ClC(Cl)Cl): 360 nm

Nc1nc2ccccc2[n+]([O-])n1
absorption maximum (in CC#N): 407 nm
absorption maximum (in O): 415 nm

CCN(CC)c1ccc2c(c1)OC1=C(/C=C/C3=[N+](C)c4ccccc4C3(C)C)CCCC1=C2c1ccccc1C(=O)O
absorption maximum (in CC#N): 708 nm
absorption maximum (in CCO): 700 nm
absorption maximum (in CO): 700 nm
absorption maximum (in ClC(Cl)Cl): 716 nm

c1ccc2ccccc2c1
absorption maximum (in C1CCCCC1): 291.46 nm and 286 nm

CC1(C)C2=C3C=C4C5=[N+](CCC4OC3CCN2c2ccc(CC(=O)NCCCCCCO)cc21)c1ccc(S(=O)(=O)[O-])cc1C5(C)C (stereo unspecified)
absorption maximum (in O): 558 nm

CC(C)[Si](C#Cc1c2cc3ccccc3cc2c(C#C[Si](C(C)C)(C(C)C)C(C)C)c2nc3cc4c(cc3nc12)C1c2ccccc2C4c2ccccc21)(C(C)C)C(C)C
absorption maximum (in CCCCCC): 675 nm
absorption maximum (in ClCCl): 683 nm

CC1(C)c2ccccc2N(c2ccc3c(ccc4nc5ccc6cc(N7c8ccccc8C(C)(C)c8ccccc87)ccc6c5nc43)c2)c2ccccc21
absorption maximum (in C1CCCCC1): 413 nm
absorption maximum (in C1CCOC1): 416 nm
absorption maximum (in CN(C)C=O): 418 nm
absorption maximum (in Cc1ccccc1): 416 nm
absorption maximum (in ClCCl): 416 nm

Cc1ccc(C2=C3C=CC(Nc4ccccc4)=[N+]3[B-](F)(F)n3c(Nc4ccccc4)ccc32)cc1
absorption maximum (in CO): 588 nm

Cc1cc(C)c(B(c2c(C)cc(C)cc2C)c2cc3ccc4ccccc4c3c3c2cc(N(C)C)c2ccccc23)c(C)c1
absorption maximum (in C1CCCCC1): 438 nm
absorption maximum (in C1CCOC1): 439 nm
absorption maximum (in CC#N): 437 nm
absorption maximum (in ClC(Cl)Cl): 440 nm
absorption maximum (in c1ccccc1): 440 nm

O=C1c2ccc3c4c(NC5CCCCC5)cc5c6c(ccc(c7c(NC8CCCCC8)cc(c2c37)C(=O)N1C1CCCCC1)c64)C(=O)N(C1CCCCC1)C5=O
absorption maximum (in ClC(Cl)Cl): 703 nm

CCNc1cc2oc(=O)c3c(=O)oc4ccccc4c3c2cc1C
absorption maximum (in CS(C)=O): 454 nm
absorption maximum (in ClCCl): 441 nm

CC(C)(C)c1cc2ccc3c(-c4ccc(N(c5ccccc5)c5ccccc5)cc4)ccc4c5nc6cc(C#N)c(C#N)cc6nc5c(c1)c2c34
absorption maximum (in Cc1ccccc1): 500 nm

CCCCCCCCCCCCOc1cc2c3c(ccc4c5c(NC6CCCCC6)cc6c7c(ccc(c1c34)c75)C(=O)N(C1CCCCC1)C6=O)C(=O)N(C1CCCCC1)C2=O
absorption maximum (in ClC(Cl)Cl): 640 nm

CCOC(=O)CSc1nc(-c2ccccc2)c(C)c(C#N)c1C#N
absorption maximum (in C1COCCO1): 350 nm
absorption maximum (in CC#N): 365 nm
absorption maximum (in CCO): 367 nm
absorption maximum (in CCOC(C)=O): 366 nm
absorption maximum (in ClC(Cl)Cl): 376 nm
absorption maximum (in c1ccccc1): 372 nm

CCN(CC)c1ccc(/C=N/C(C#N)=C(C#N)/N=C/c2ccc(N(CC)CC)cc2O)c(O)c1
absorption maximum (in CC#N): 565 nm
absorption maximum (in CN(C)C=O): 571 nm
absorption maximum (in ClCCl): 570 nm

C#CCNC1=C2C=C(c3cc4n(c3)[B-](F)(F)[N+]3=CC=CC3=C4c3c(C)cc(C)cc3C)C(C)=[N+]2[B-](F)(F)n2c(C)ccc21
absorption maximum (in C1CCCCC1): 568 nm
absorption maximum (in CCOC(C)=O): 568 nm

COc1cc(OC)cc(C(=O)OCc2c(C)c(=O)n3c(=O)c(C)c(C)n23)c1
absorption maximum (in CCO): 378 nm

N#Cc1ccc(-n2c(-c3ccc(-c4ccc(-c5nc6c7ccccc7c7ccccc7c6n5-c5ccc(C#N)c6ccccc56)c5ccccc45)c4ccccc34)nc3c4ccccc4c4ccccc4c32)c2ccccc12
absorption maximum (in ClCCl): 336 nm
